Data taken from patent US11046697B2, “Compounds and compositions useful for treating disorders related to NTRK” (BLUEPRINT MEDICINES CORPORATION, priority 2015, dated 2021).
Where two headings read alike, the source gives them in different places.

Key:
wild type NTRK1 enzyme = biological target: T1, wild type NTRK1 enzyme (Homo sapiens, UniProt P04629); test: NTRK1 Wild Type Assay at 1 mM ATP; format: biochemical; details: 1 mM ATP; read-out: Enz NTRK1 IC50
T1 construct: purchased BPS Bioscience 40280
Procedure: NTRK1 Wild Type Assay at 1 mM ATP
The reaction was stopped by the addition of 70 μL of Stop buffer (100 mM HEPES pH 7.5, 0.015% Brij 35, 35 mM EDTA and 0.2% of Coating Reagent 3 (Caliper Lifesciences)). The plate was then read on a Caliper EZReader 2 (protocol settings: −1.7 psi, upstream voltage −500, downstream voltage −3000, post sample sip 35s).

[1] = system: KM12 wild type colon carcinoma cell line harboring the TPM3-NTRK1 fusion protein; test: NTRK wild type cellular assay (CellTiter-Glo growth inhibition); format: cell-based; details: 72 hr, CellTiter-Glo, read-out: KM12 (WT) IC50
Procedure: (§1) NTRK Wild Type and G595R Mutant Cellular Assays Protocol
(§2) KM12 wild type colon carcinoma cell line harboring the TPM3-NTRK1 fusion protein was obtained from the National Cancer Institute (NCI). This line has been previously shown to be dependent upon the NTRK activity derived from the NTRK fusion protein for growth and survival. […] Cells were first plated in 384-well plates at 1000 cells/well in complete media (10% FBS and 1% pen/strep) and incubated overnight at 37° C. Cells were then dosed with test articles at varying concentrations using the Bravo liquid handling system. […] Each compound was run in duplicate per plate. […] 72 hr after dosing, assay plates were developed using CellTiter-Glo (Promega) and resultant luminescence was read on the Envision plate reader. IC50 determinations were calculated using a 4-parameter curve fitting algorithm

[2] = system: KM12 Cliff (G595R) cell line; test: NTRK G595R mutant cellular assay (CellTiter-Glo growth inhibition); format: cell-based; details: 72 hr, CellTiter-Glo
Procedure: as §1, §2

T1 sequence (P04629 440-796 limits assumed): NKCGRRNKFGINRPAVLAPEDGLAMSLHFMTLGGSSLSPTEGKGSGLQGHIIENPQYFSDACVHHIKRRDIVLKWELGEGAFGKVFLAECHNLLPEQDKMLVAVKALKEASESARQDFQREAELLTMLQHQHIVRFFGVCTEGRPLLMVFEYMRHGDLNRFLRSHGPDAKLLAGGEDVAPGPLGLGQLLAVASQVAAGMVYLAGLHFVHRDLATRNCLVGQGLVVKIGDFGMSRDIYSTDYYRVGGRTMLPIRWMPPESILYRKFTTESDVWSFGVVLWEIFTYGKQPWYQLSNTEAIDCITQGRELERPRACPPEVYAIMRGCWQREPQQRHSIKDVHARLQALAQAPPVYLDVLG

Structure (SMILES)	IC50 (wild type NTRK1 enzyme) [nM]	IC50 ([1]; Homo sapiens, KM12, 72 h) [nM]	IC50 ([2]; Homo sapiens, KM12, 72 h) [nM]	IC50 [1] [nM]	IC50 [2] [nM]
O=C(NCc1cc(F)ccc1F)c1n[nH]c2ncnc(N[C@@H]3C[C@@H](F)C[C@H]3O)c12 (relative stereo) [Compound 17]	10 to 100	10 to 100	100 to 1000		
O=C(NCc1cc(F)ccc1F)c1n[nH]c2ncnc(N[C@@H]3CC[C@@H](F)[C@H]3O)c12 (relative stereo) [Compound 19]	> 1000	> 1000	> 1000		
O=C(NCc1cc(F)ccc1F)c1n[nH]c2ncnc(N[C@@H]3CCC[C@H]3O)c12 [Compound 1]	10 to 100	10 to 100	10 to 100		
Cc1ccc(F)cc1CNC(=O)c1n[nH]c2ncnc(N[C@@H]3CC[C@@H](O)[C@H]3O)c12 [Compound 2]	100 to 1000	100 to 1000	100 to 1000		
O=C(NCc1cc(F)ccc1F)c1n[nH]c2ncnc(N[C@@H]3[C@H]4C[C@H]4C[C@H]3O)c12 [Compound 3]	> 1000	> 1000	> 1000		
O=C(NCc1cc(F)ccc1F)c1n[nH]c2ncnc(N[C@@H]3C[C@H]4C[C@H]4[C@H]3O)c12 [Compound 4]	100 to 1000	> 1000	> 1000		
CN(Cc1cncc(F)c1)C(=O)c1n[nH]c2ncnc(N[C@@H]3CC[C@@H](O)[C@H]3O)c12 [Compound 5]	100 to 1000	100 to 1000	100 to 1000		
CN(Cc1cc(F)ccc1F)C(=O)c1n[nH]c2ncnc(N[C@@H]3CCC[C@H]3O)c12 [Compound 6]	< 10	10 to 100	10 to 100		
C[C@@H](NC(=O)c1n[nH]c2ncnc(N[C@@H]3CCC[C@H]3O)c12)c1cc(F)ccc1F [Compound 7]	10 to 100	10 to 100	10 to 100		
O=C(NCc1cc(F)ccc1F)c1n[nH]c2ncnc(N[C@@H]3COCC[C@H]3O)c12 [Compound 8]	10 to 100	10 to 100	100 to 1000		
O=C(NCc1cc(F)ccc1F)c1n[nH]c2ncnc(NC3CCC(O)C3O)c12 (stereo not drawn) [Compound 9]	10 to 100			10 to 100	100 to 1000
O=C(NCc1cc(F)ccc1F)c1n[nH]c2ncnc(NC3CCC(O)C3O)c12 (stereo not drawn) [Compound 10]	100 to 1000			100 to 1000	> 1000
O=C(NCc1cc(F)ccc1F)c1n[nH]c2ncnc(N[C@@H]3CCOC[C@H]3O)c12 [Compound 11]	100 to 1000	100 to 1000	100 to 1000		
O=C(NCc1cc(F)ccc1F)c1n[nH]c2ncnc(NC3CC(O)CC3O)c12 (stereo not drawn) [Compound 12]	100 to 1000	100 to 1000	> 1000		
O=C(NCc1cc(F)ccc1F)c1n[nH]c2ncnc(NC3CC(O)CC3O)c12 (stereo not drawn) [Compound 13]	10 to 100			10 to 100	100 to 1000
O=C(NCc1cc(F)ccc1F)c1n[nH]c2ncnc(NC3CC(F)CC3O)c12 (stereo not drawn) [Compound 14]	100 to 1000			100 to 1000	100 to 1000
O=C(NCc1cc(F)ccc1F)c1n[nH]c2ncnc(NC3CC(F)CC3O)c12 (stereo not drawn) [Compound 15]	100 to 1000			100 to 1000	> 1000
O=C(NCc1cc(F)ccc1F)c1n[nH]c2ncnc(NC3CC(F)CC3O)c12 (stereo not drawn) [Compound 16]	100 to 1000			> 1000	> 1000
O=C(NCc1cc(F)ccc1F)c1n[nH]c2ncnc(NC3CCC(F)C3O)c12 (stereo not drawn) [Compound 18]	100 to 1000			100 to 1000	> 1000
N#Cc1cc(F)cc(CNC(=O)c2n[nH]c3ncnc(N[C@@H]4CC[C@@H](O)[C@H]4O)c23)c1 [Compound 22]	100 to 1000	> 1000	> 1000		
Cc1ccc(F)cc1CN(C)C(=O)c1n[nH]c2ncnc(NC3CCC(O)C3O)c12 (stereo not drawn) [Compound 23]	< 10			10 to 100	10 to 100
COc1ccc(F)cc1CNC(=O)c1n[nH]c2ncnc(N[C@@H]3COCC[C@H]3O)c12 [Compound 24]	10 to 100	100 to 1000	100 to 1000		
O=C(NCc1cc(F)ccc1F)c1n[nH]c2ncnc(N[C@H]3[C@H](O)[C@H](O)[C@@H]4C[C@@H]43)c12 [Compound 25]	10 to 100	10 to 100	100 to 1000		
CCN(Cc1cc(F)ccc1F)C(=O)c1n[nH]c2ncnc(NC3CCCC3O)c12 (stereo not drawn) [Compound 26]	10 to 100			10 to 100	100 to 1000
